Data from patent publication US9994886B2, “Modified Epstein-Barr virus DNA polymerase and methods for isothermal DNA amplification” (priority 2013, dated 2018).

Experiments:
[1] = tested on: singly-primed M13mp18 single-stranded DNA circle; settings: cited from earlier work
oligo dG:poly dC = experiment: Activity on synthetic primer:template, GC preference; assay type: biochemical
Description: EBVpol and the modified EBVpol of this invention have strong amplification activity on GC-rich regions of DNA sequences; EBV DNA polymerase has 29-fold greater activity on synthetic oligo dG:poly dC (primer:template) compared to oligo dA:poly dT. GC-rich DNA sequences are the most difficult-to-amplify DNA sequences. […] Thus, the GC-preference of EBVpol and its variants makes EBVpol and its variants preferred reagents for whole genome amplification (“WGA”).

[2] = BALF5 combined with BMRF1; cited from earlier work
EBVpol = target: T1, EBVpol (Epstein-Barr virus, UniProt P03198); experiment: Inhibition of EBVpol activity at high salt; assay type: biochemical; settings: 20 mM PAA
T1 construct: Ac-BALF5 baculovirus vector, an expression plasmid vector bearing the full-length BALF5 gene; made in house; host or cells: Sf9 insect cells, recombinant baculoviruses pAc-BALF5 and pAc-BMRF1
T1 sequence (P03191 whole entry): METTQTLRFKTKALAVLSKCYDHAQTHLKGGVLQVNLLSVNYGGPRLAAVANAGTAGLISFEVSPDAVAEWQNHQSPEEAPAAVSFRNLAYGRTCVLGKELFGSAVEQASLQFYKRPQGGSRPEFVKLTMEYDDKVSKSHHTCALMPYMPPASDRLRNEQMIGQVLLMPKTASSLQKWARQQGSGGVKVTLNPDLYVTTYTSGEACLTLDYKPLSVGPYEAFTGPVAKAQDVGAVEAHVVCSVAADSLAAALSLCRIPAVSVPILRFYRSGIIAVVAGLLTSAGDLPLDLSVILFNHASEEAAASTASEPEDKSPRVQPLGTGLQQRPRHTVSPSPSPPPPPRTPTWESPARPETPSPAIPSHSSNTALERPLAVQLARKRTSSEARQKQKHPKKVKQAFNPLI
T1 sequence (P03198 whole entry, added parts left off): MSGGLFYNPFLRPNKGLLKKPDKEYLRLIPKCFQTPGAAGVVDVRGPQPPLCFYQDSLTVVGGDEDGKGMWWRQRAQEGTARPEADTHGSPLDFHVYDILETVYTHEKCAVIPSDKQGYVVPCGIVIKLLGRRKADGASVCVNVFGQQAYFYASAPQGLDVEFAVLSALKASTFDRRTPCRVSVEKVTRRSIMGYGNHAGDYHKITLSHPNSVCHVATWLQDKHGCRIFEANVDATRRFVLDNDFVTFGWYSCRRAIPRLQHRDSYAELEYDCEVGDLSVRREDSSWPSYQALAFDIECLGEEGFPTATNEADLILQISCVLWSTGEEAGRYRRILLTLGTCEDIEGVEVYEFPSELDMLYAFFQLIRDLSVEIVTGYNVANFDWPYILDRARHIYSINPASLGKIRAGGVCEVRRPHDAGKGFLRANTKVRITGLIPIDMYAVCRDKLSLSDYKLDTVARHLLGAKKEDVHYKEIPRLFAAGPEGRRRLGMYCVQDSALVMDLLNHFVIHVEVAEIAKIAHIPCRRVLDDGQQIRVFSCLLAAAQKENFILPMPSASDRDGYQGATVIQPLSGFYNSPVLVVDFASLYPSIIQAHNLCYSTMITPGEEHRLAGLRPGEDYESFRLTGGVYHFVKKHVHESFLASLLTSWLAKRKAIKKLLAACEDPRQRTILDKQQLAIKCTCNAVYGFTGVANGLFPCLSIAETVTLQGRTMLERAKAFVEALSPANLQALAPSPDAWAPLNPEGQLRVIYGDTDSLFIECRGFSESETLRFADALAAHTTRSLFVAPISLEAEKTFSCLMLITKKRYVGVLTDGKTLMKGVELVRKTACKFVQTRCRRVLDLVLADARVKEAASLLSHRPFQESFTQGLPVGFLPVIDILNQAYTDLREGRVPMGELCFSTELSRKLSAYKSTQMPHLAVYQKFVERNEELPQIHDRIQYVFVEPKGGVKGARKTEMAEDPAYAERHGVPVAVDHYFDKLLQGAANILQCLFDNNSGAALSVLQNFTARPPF
Method: (§1) When assayed in the presence of BMRF1, its activity on CT DNA at 100 mM ammonium sulfate was greater than 100-fold increased over its activity alone, in the absence of salt.

GST-BMRF1(1-303) = target: T2, GST-BMRF1(1-303) (Epstein-Barr virus, UniProt P03191); experiment: Binding of radiolabeled BALF5-deletion polypeptides to GST-BMRF1(1-303); settings: 100 mM ammonium sulfate; [35S]-methionine labeled in vitro translated polypeptides
T2 construct: A GST fusion with BMRF1 residues 1-303 was constructed and expressed in E. coli BL21*DE3; made in house; host or cells: E. coli BL21*DE3
T2 sequence (P03191 1-303): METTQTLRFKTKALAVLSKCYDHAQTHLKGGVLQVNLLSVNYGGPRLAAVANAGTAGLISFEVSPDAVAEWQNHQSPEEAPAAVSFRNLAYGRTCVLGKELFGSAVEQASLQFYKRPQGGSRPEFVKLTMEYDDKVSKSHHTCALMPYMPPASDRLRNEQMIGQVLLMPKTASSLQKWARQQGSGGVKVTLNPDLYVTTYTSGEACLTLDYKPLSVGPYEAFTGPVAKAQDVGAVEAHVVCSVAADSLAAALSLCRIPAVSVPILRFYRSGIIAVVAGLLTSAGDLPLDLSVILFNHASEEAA
Method: (§2) To determine if the extreme carboxyl terminus of the EBV BALF5 subunit is necessary for functional interaction with BMRF1, a series of deletions of the BALF5 open reading frame was constructed in the pYES-X2 vector and [^35S]-methionine labeled polypeptides were expressed by in vitro transcription-translation as described (Kiehl, A. and D. I. Dorsky, J Virol, 1995, 69(3): p. 1669-77). These radiolabeled BALF5-deletion polypeptides were then assayed for binding to GST-BMRF1(1-303) in 100 mM ammonium sulfate. In vitro translated BALF5 bound to GST-BMRF1(1-303) but not to GST alone.

[3] = tested on: activated calf thymus (CT) DNA; experiment: DNA polymerase elongation activity of purified BALF5 on activated calf thymus DNA; assay type: biochemical
Method: as §1

GST-BMRF1 fusion = target: T3, GST-BMRF1 fusion (Epstein-Barr virus, UniProt P03191); experiment: GST-BMRF1 fusion binding to BALF5 on glutathione agarose beads at varied salt
T3 construct: A GST fusion with BMRF1 residues 1-303 was constructed and expressed in E. coli BL21*DE3; made in house; host or cells: E. coli BL21*DE3
T3 sequence (P03191 1-303): T2 sequence (P03191 1-303)
Method: A GST fusion with BMRF1 residues 1-303 was constructed and expressed in E. coli BL21*DE3 as a soluble 58 kDa protein which bound specifically to glutathione-agarose. Glutathione agarose beads were incubated in bacterial extract containing either 27 kDa wild-type GST or 58 kDa GST-BMRF1 and extensively washed in PBS, or 50 mM Tris-HCl, pH 8.0 containing 0, 50, 100, 150, or 200 mM ammonium sulfate. The beads were then incubated in the same wash buffers in the presence of [^35S]-methionine labeled in vitro translated BALF5, and then the beads were washed extensively at the same salt concentrations as the incubations. The washed beads were boiled in SDS sample buffer and the eluted proteins were analyzed by SDS-PAGE/fluorography. Measures taken to avoid the copurification of nucleic acids included washing the column at 600 mM NaCl and application of DNase to the column. And SDS-PAGE analysis was used to monitor GST-BMRF1 (1-303). […] Non-specific binding of BALF5 to the 27 kDa GST was very weak and independent of salt concentration.

GST = target: T4, GST (Schistosoma japonicum, UniProt P08515); experiment: Non-specific binding of in vitro translated BALF5 to GST
T4 construct: made in house; host or cells: E. coli (bacterial extract)
T4 sequence (P08515 whole entry): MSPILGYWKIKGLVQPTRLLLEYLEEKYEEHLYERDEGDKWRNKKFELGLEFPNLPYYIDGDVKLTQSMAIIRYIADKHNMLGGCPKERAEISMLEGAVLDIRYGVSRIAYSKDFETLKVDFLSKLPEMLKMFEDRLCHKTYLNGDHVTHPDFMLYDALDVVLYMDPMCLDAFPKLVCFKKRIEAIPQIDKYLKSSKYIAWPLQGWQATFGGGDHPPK
Method: as §2
A GST fusion with BMRF1 residues 1-303 was constructed and expressed in E. coli BL21*DE3 as a soluble 58 kDa protein which bound specifically to glutathione-agarose. Glutathione agarose beads were incubated in bacterial extract containing either 27 kDa wild-type GST or 58 kDa GST-BMRF1 and extensively washed in PBS, or 50 mM Tris-HCl, pH 8.0 containing 0, 50, 100, 150, or 200 mM ammonium sulfate. The beads were then incubated in the same wash buffers in the presence of [^35S]-methionine labeled in vitro translated BALF5, and then the beads were washed extensively at the same salt concentrations as the incubations. The washed beads were boiled in SDS sample buffer and the eluted proteins were analyzed by SDS-PAGE/fluorography. […]

[4] = tested on: activated calf thymus DNA; experiment: DNA polymerase assay, incorporation of [32P]-dCMP into trichloroacetic acid-precipitable material; assay type: biochemical; settings: 100 mM ammonium sulfate; polypeptides in equimolar ratios
Method: The activity of the bacterially-expressed purified BMRF1(1-303)(“ΔC303”) polypeptide was examined in a DNA polymerase assay which measured incorporation of [^32P]-α-dCMP into trichloroacetic acid-precipitable material using activated calf thymus DNA and [^32P]-α-dCTP as the substrates in the presence of 100 mM ammonium sulfate (Tsurumi, T., T. Daikoku, and Y. Nishiyama, J Virol, 1994, 68(5): p. 3354-63). The BALF5 catalytic DNA polymerase subunit was obtained by expression in insect cells from the Ac-BALF5 baculovirus and purified by phosphocellulose and heparin affinity chromatography. The polypeptides were assayed in equimolar ratios and the specific activity (micromoles of dCMP incorporation per milligram of protein per hour) is shown in Table 3.
The GST-BMRF1 (1-303) polypeptide was bound to glutathione-agarose as described previously and cleaved overnight with 1/50 (w/w) factor Xa (NEBioLabs, Ipswich, Mass.) in 1 mM CaCl2. The cleaved BMRF1 (1-303) was then purified on DNA-cellulose, eluting at 300-500 mM NaCl. SDS-PAGE analysis confirmed the size of the uncleaved GST-BMRF1 (1-303) and the purified cleaved BMRF1 (1-303). The purified BMRF1 (1-303) was then shown to stimulate purified baculovirus-expressed BALF5 in 100 mM ammonium sulfate (see Table 3).

In the case of “EBV DNA polymerase holoenzyme: 1:1 complex of BALF5 catalytic subunit and BMRF1 processivity factor”, the “strand-displacement activity (SDA)” value [1] is given as “possesses signification SDA”, the rate of incorporation ([1]; singly-primed M13mp18 single-stranded DNA circle) is given as “approximately 7200 nucleotides in 10 minutes” and the “activity on oligo dG:poly dC compared to oligo dA:poly dT” value (oligo dG:poly dC) is given as 29 fold. The “ionic strength optimum of processive primer-dependent DNA synthesis” value [2] was 150 mM ammonium sulfate.

For `O=C(O)CP(=O)(O)O` [PAA, phosphonoacetic acid], the inhibition at 20000 µM (EBVpol) was 60%.

In the case of “BALF5: 116-kDa catalytic subunit of EBV DNA polymerase with intrinsic 3′-5′ exonuclease activity, SEQ ID NO. 8”, the “binding to GST-BMRF1(1-303)” value (GST-BMRF1(1-303)) is reported as “bound”, the “DNA polymerase elongation activity on activated CT DNA” value ([3]; 100 mM ammonium sulfate, BALF5 alone) is reported as “completely inactive” and the “increase of activity on CT DNA over its activity alone in the absence of salt” value ([3]; in the presence of BMRF1, 100 mM ammonium sulfate) is reported as “greater than 100 fold”. For the same molecule, the “DNA polymerase elongation activity on activated CT DNA” value ([3]; low ionic strength) was “significant DNA polymerase elongation activity”, the “binding to the GST-BMRF1 fusion” value (GST-BMRF1 fusion; 0 and 200 mM ammonium sulfate) was “bind poorly” and the “binding to the GST-BMRF1 fusion” value (GST-BMRF1 fusion; PBS and 50-150 mM ammonium sulfate) was “bound efficiently”. The “binding to GST alone” value (GST) was “very weak” and the “Specific Activity” value [4] was 1.7 micromoles of dCMP incorporation per milligram of protein per hour.

B1: ΔC303: BMRF1 with deletion of the C-terminal 101 amino acids (residues 1-303) (protein)
chain: T2 sequence (P03191 1-303)
In the case of B1, the “Specific Activity” value [4] is reported as 0.2 micromoles of dCMP incorporation per milligram of protein per hour.
